Test results: US9487488B2, “Sulfonamide compound” (MITSUBISHI TANABE PHARMA CORPORATION, priority 2012, dated 2016)
pIC50: −log10 of the molar value.

Molecular target: human TRPM8 (Homo sapiens (Human), UniProt Q7Z2W7)
Assay: TRPM8 inhibition assay (menthol-induced calcium influx, FDSS)
Type: cell-based
Conditions: HEK293 cells stably expressing human TRPM8; 100 μmol/L menthol; Fura-2AM calcium signal; read-out: TRPM8 Blocking Test (IC50/nmol/L)
Description: The functional activity of a test compound was determined by measuring change in intracellular calcium concentration using a calcium sensitive fluorescent dye. The change in fluorescent signal was measured by the cell imaging technology by Hamamatsu Photonics's Functional Drug Screening System (FDSS).
HEK293 cells stably expressing human TRPM8 were grown in a flask. On assay day, the culture medium was removed from the flask, and cells were washed with phosphate-buffered saline (PBS) and harvested with PBS containing 2 mmol/L of ethylenediaminetetraacetic acid disodium salt (EDTA-2Na). […] Subsequently, suspended 20,000 to 50,000 cells per well were incubated with a test compound (at varying concentrations) in each well at 37° C. for 20 minutes. Change in intracellular calcium concentration evoked by 100 μmol/L of menthol was measured for 2 minutes using FDSS. […] The concentration-response curve was generated using the average of quadruplicate wells for each data point.

Chain of human TRPM8 (Q7Z2W7 whole entry): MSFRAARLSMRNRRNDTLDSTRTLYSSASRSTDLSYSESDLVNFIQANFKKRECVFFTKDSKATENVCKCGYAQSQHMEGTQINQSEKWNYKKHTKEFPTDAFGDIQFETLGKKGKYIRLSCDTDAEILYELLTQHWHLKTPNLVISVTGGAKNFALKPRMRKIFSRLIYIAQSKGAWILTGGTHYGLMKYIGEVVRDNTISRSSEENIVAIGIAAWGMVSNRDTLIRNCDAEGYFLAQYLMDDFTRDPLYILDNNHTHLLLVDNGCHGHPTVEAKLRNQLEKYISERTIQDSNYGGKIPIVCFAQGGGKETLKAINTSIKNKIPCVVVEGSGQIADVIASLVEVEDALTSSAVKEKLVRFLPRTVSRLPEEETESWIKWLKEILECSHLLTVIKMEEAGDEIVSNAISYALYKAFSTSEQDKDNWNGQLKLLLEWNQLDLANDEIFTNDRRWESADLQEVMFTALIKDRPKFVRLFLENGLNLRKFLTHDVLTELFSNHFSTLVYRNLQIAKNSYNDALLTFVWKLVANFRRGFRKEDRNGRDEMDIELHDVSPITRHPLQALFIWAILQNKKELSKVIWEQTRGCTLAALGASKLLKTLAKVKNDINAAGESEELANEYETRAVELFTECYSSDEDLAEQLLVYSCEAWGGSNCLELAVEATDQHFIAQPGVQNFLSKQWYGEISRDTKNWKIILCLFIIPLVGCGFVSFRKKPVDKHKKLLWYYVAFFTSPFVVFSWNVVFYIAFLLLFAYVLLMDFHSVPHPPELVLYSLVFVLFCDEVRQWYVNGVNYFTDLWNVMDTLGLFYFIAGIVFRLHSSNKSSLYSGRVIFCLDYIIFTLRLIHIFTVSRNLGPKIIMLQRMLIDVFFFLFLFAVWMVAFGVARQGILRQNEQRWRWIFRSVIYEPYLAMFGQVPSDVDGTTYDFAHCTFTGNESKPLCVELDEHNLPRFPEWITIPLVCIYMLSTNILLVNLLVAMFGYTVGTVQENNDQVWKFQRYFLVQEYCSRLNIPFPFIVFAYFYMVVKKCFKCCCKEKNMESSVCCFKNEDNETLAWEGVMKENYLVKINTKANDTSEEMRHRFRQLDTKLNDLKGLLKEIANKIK

With O=c1[nH][nH]c2cc(S(=O)(=O)N(Cc3ccc(OC(F)(F)F)cc3)c3ncc4ccccc4c3C3CC3)ccc12 [Example 13, N-(4-cyclopropylisoquinolin-3-yl)-3-oxo-N-[4-(trifluoromethoxy)benzyl]-2,3-dihydro-1H-indazole-6-sulfonamide] the pIC50 was 8.37.
With Cc1c(N(Cc2ccc(OC(F)(F)F)cc2)S(=O)(=O)c2ccc(-c3nnn[nH]3)cc2)nc(C2CC2)c2ccccc12 [Example 14] the pIC50 was 9.15.
For O=S(=O)(c1ccc(-c2nnn[nH]2)cc1)N(Cc1ccc(OC(F)(F)F)cc1)c1ncc2ccccc2c1C(F)(F)F [Example 15], the pIC50 was 8.70.
With O=S(=O)(c1ccc(-c2nnn[nH]2)nc1)N(Cc1ccc(OC(F)(F)F)cc1)c1ncc2ccccc2c1C(F)(F)F [Example 16] the pIC50 was 8.80.
With Cc1cc(S(=O)(=O)N(Cc2ccc(OC(F)(F)F)cc2)c2ncc3ccccc3c2C2CC2)ccc1-c1nnn[nH]1 [Example 17] the pIC50 was 9.52.
In the case of O=S(=O)(c1ccc(-c2nnn[nH]2)cc1)N(Cc1ccc(C(F)(F)F)cn1)c1ncc2ccccc2c1C1CC1 [Example 18], the pIC50 was 9.05.
Compound O=S(=O)(c1ccc(-c2ncn[nH]2)cc1)N(Cc1ccc(OC(F)(F)F)cc1)c1ncc2ccccc2c1C(F)(F)F [Example 20] has a pIC50 of 8.49.
Cc1n[nH]c(-c2ccc(S(=O)(=O)N(Cc3ccc(OC(F)(F)F)cc3)c3ncc4ccccc4c3C(F)(F)F)cc2)n1 [Example 21] gave a pIC50 of 8.96.
With Cc1n[nH]c(-c2ccc(S(=O)(=O)N(Cc3ccc(OC(F)(F)F)cc3)c3ncc4ccccc4c3C3CC3)cc2)n1 [Example 22] the pIC50 was 9.22.
Cc1cc(S(=O)(=O)N(Cc2ccc(OC(F)(F)F)cc2)c2ncc3ccccc3c2C2CC2)ccc1-c1ncn[nH]1 [Example 23] showed a pIC50 of 9.30.
O=S(=O)(c1ccc(-c2ncn[nH]2)cc1)N(Cc1ccc(C(F)(F)F)cn1)c1ncc2ccccc2c1C1CC1 [Example 24] gave a pIC50 of 8.92.
For Cc1n[nH]c(-c2ccc(S(=O)(=O)N(Cc3ccc(C(F)(F)F)cn3)c3ncc4ccccc4c3C3CC3)cc2)n1 [Example 25], the pIC50 was 9.15.
Compound Cc1cc(S(=O)(=O)N(Cc2ccc(C(F)(F)F)cn2)c2ncc3ccccc3c2C2CC2)ccc1-c1ncn[nH]1 [Example 26] has a pIC50 of 9.00.
Cc1n[nH]c(-c2ccc(S(=O)(=O)N(Cc3ccc(C(F)(F)F)cn3)c3ncc4ccccc4c3C3CC3)cc2C)n1 [Example 27] was tested, and the pIC50 was 9.10.
With O=S(=O)(c1ccc(-c2ncn[nH]2)nc1)N(Cc1ccc(OC(F)(F)F)cc1)c1ncc2ccccc2c1C(F)(F)F [Example 28] the pIC50 was 8.46.
Cc1n[nH]c(-c2ccc(S(=O)(=O)N(Cc3ccc(OC(F)(F)F)cc3)c3ncc4ccccc4c3C(F)(F)F)cn2)n1 [Example 29] gave a pIC50 of 8.66.
Cc1n[nH]c(-c2ccc(S(=O)(=O)N(Cc3ccc(OC(F)(F)F)cc3)c3ncc4ccccc4c3C3CC3)cn2)n1 [Example 30] showed a pIC50 of 8.96.
Work on O=c1[nH]c(-c2ccc(S(=O)(=O)N(Cc3ccc(C(F)(F)F)cn3)c3ncc4ccccc4c3C3CC3)cc2)no1 [Example 31] yielded a pIC50 of 8.96.
Cc1c(N(Cc2ccc(OC(F)(F)F)cc2)S(=O)(=O)c2ccc(-c3noc(=O)[nH]3)cc2)nc(C2CC2)c2ccccc12 [Example 32] was tested, and the pIC50 was 8.57.
With O=c1[nH]c(-c2ccc(S(=O)(=O)N(Cc3ccc(OC(F)(F)F)cc3)c3ncc4ccccc4c3C(F)(F)F)cn2)no1 [Example 33] the pIC50 was 8.44.
Work on Cc1cc(S(=O)(=O)N(Cc2ccc(OC(F)(F)F)cc2)c2ncc3ccccc3c2C2CC2)ccc1-c1noc(=O)[nH]1 [Example 34] yielded a pIC50 of 9.30.
O=c1[nH]c(-c2ccc(S(=O)(=O)N(Cc3ccc(OC(F)(F)F)cc3)c3ncc4ccccc4c3C3CC3)nc2)no1 [Example 35] gave a pIC50 of 8.02.
For Cc1cc(S(=O)(=O)N(Cc2ccc(OC(F)(F)F)cc2)c2ncc3ccccc3c2C2CC2)ccc1C(=O)O [Example 36, 4-({(4-cyclopropylisoquinolin-3-yl)[4-(trifluoromethoxy)benzyl]amino}sulfonyl)-2-methylbenzoic acid], the pIC50 was 8.85.
